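A five-concentration, 48-hour dose response in 96-well plates underlies each endpoint, interpolated linearly between surrounding concentrations. GI50 marks 50% less growth. TGI is the concentration that stops growth completely.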
Columns and labels:
Test in all cases: NCI tumour cell line growth inhibition, 48 h; in the data active = GI50 below about 0.43 µM; inactive = the rest
[1] = tested on: MDA-MB-435
[2] = tested on: COLO 205 colon
[3] = tested on: SR leukemia
[4] = tested on: OVCAR-3 ovarian
[5] = tested on: IGROV1 ovarian
[6] = tested on: LOX IMVI melanoma
[7] = tested on: HS 578T breast
[8] = tested on: UACC-62 melanoma
[9] = tested on: PC-3 prostate
[10] = tested on: NCI-H23 lung
[11] = tested on: UACC-257 melanoma
[12] = tested on: A549 NSCLC
[13] = tested on: UO-31 renal
[14] = tested on: SNB-19 CNS
[15] = tested on: SK-OV-3 ovarian
[16] = tested on: 786-0 renal
[17] = tested on: T-47D breast
[18] = tested on: OVCAR-5 ovarian
[19] = tested on: SF-268 CNS
[20] = tested on: MOLT-4 leukemia
[21] = tested on: SN12C renal
[22] = tested on: SK-MEL-28 melanoma
[23] = tested on: SW-620 colon
[24] = tested on: TK-10 renal
[25] = tested on: CCRF-CEM leukemia
[26] = tested on: NCI/ADR-RES ovarian
[27] = tested on: BT-549 breast
[28] = tested on: SF-539 CNS
[29] = tested on: OVCAR-4 ovarian
[30] = tested on: HOP-92 NSCLC
[31] = tested on: SK-MEL-2 melanoma
[32] = tested on: SK-MEL-5 melanoma
[33] = tested on: HOP-62 NSCLC
[34] = tested on: NCI-H460 lung
[35] = tested on: NCI-H226 lung
[36] = tested on: HL-60(TB) leukemia
[37] = tested on: HCC-2998 colon
[38] = tested on: OVCAR-8 ovarian
[39] = tested on: HCT-116 colon
[40] = tested on: DU-145 prostate
[41] = tested on: SF-295 CNS
[42] = tested on: U251 CNS
[43] = tested on: MDA-MB-231 breast
[44] = tested on: K-562 leukemia
[45] = tested on: RPMI-8226 leukemia
[46] = tested on: SNB-75 CNS
[47] = tested on: KM12 colon
[48] = tested on: A498 renal
[49] = tested on: EKVX NSCLC
[50] = tested on: HCT-15 colon
[51] = tested on: MALME-3M melanoma
[52] = tested on: HT29 colon
[53] = tested on: MCF7 breast
[54] = tested on: ACHN renal
[55] = tested on: RXF 393 renal
[56] = tested on: M14 melanoma

CCC(=O)O[C@@H]([C@H](C)[C@H]1OC(CC)=C(C)C(=O)[C@@H]1C)[C@@H](C)C(=O)CC
active: GI50 [4] 0.0316 µM | GI50 [37] 0.183 µM
> 100 µM: TGI [1] | TGI [2] | TGI [3] | TGI [5] | TGI [6] | TGI [7] | TGI [8] | TGI [9] | TGI [10] | TGI [11] | TGI [12] | TGI [13] | TGI [14] | TGI [15] | TGI [16] | TGI [17] | TGI [18] | TGI [19] | TGI [20] | TGI [21] | TGI [22] | TGI [23] | TGI [24] | TGI [25] | TGI [26] | TGI [27] | TGI [28] | TGI [29] | TGI [30] | TGI [31] | TGI [32] | TGI [33] | TGI [34] | TGI [35] | TGI [36] | TGI [38] | TGI [39] | TGI [40] | TGI [41] | TGI [42] | TGI [43] | TGI [44] | TGI [45] | TGI [46] | TGI [47] | TGI [48] | TGI [49] | TGI [50] | TGI [51] | TGI [52] | TGI [53] | TGI [54] | TGI [55] | TGI [56]
inactive: GI50 [1] > 100 µM | GI50 [2] 68.6 µM | GI50 [3] 92.4 µM | GI50 [5] 19.9 µM | GI50 [6] > 100 µM | GI50 [7] 96.8 µM | GI50 [8] 60.8 µM | GI50 [9] 59.6 µM | GI50 [10] 37.8 µM | GI50 [11] > 100 µM | GI50 [12] > 100 µM | GI50 [13] > 100 µM | GI50 [14] > 100 µM | GI50 [15] > 100 µM | GI50 [16] > 100 µM | GI50 [17] 23.6 µM | GI50 [18] 32.7 µM | GI50 [19] > 100 µM | GI50 [20] 60 µM | GI50 [21] > 100 µM | GI50 [22] > 100 µM | GI50 [23] > 100 µM | GI50 [24] > 100 µM | GI50 [25] > 100 µM | GI50 [26] 31.7 µM | GI50 [27] 90.2 µM | GI50 [28] > 100 µM | GI50 [29] 40.8 µM | GI50 [30] > 100 µM | GI50 [31] > 100 µM | GI50 [32] 53.6 µM | GI50 [33] > 100 µM | GI50 [34] 78.7 µM | GI50 [35] > 100 µM | GI50 [36] 37.4 µM | GI50 [38] > 100 µM | GI50 [39] 55.6 µM | GI50 [40] > 100 µM | GI50 [41] > 100 µM | GI50 [42] > 100 µM | GI50 [43] > 100 µM | GI50 [44] 61.6 µM | GI50 [45] 66.8 µM | GI50 [46] > 100 µM | GI50 [47] 60.1 µM | GI50 [48] 88.9 µM | GI50 [49] > 100 µM | GI50 [50] > 100 µM | GI50 [51] > 100 µM | GI50 [52] 53.6 µM | GI50 [53] > 100 µM | GI50 [54] > 100 µM | GI50 [55] > 100 µM | GI50 [56] > 100 µM
0.751 µM: TGI [4]
47 µM: TGI [37]
